Values quoted from earlier work in patent US20210113536A1, “METHODS AND COMPOSITIONS FOR DETECTING AND TREATING VENOUS THROMBOEMBOLISM” (United States Government As Represented By The Department …, priority 2019, published 2021).

Test system: asymptomatic participants
Details: 20 mg of rosuvastatin, JUPITER trial

CC(C)c1nc(N(C)S(C)(=O)=O)nc(-c2ccc(F)cc2)c1/C=C/[C@@H](O)C[C@@H](O)CC(=O)O [rosuvastatin]
occurrence of symptomatic VTE: reduced occurrence of symptomatic VTE
